Where “and” joins values, the source holds several entries; their conditions need not be identical. Equal values may be shown once. Read-outs that look alike come from different tables or passages of the source.

The text below walks through data of US20250228873A1, “C25 R AND S ISOMERS OF AMINOSTEROLS AND METHODS OF MAKING AND USING THE SAME” (Enterin, Inc., priority 2022, published 2025).

Data set [1] concerns the target T1, PTPN1/PTP1B (Homo sapiens, UniProt P18031).
T1 construct: The enzyme was the human truncated form (1-321), recombinantly produced in Escherichia coli; host or cells: Escherichia coli
T1 sequence (P18031 1-321): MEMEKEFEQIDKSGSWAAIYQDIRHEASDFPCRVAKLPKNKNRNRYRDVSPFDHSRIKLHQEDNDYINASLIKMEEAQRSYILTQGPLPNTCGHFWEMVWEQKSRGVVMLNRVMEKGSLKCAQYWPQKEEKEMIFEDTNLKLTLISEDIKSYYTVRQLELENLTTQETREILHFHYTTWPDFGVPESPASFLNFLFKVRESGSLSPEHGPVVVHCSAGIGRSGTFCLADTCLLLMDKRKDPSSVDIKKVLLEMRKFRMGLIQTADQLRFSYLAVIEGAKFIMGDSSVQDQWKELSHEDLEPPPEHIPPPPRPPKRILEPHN
In words: PTP1B inhibition, fluorescence time-course, 10-dose IC50 (Example 2). It counts as biochemical.

The target of data set [2] is Tyrosine-protein phosphatase non-receptor type 11 (Homo sapiens, UniProt Q06124). In words: Phosphatase panel, DiFMUP fluorescence assay. The format is biochemical.
Tyrosine-protein phosphatase non-receptor type 11, sequence (Q06124 247-517): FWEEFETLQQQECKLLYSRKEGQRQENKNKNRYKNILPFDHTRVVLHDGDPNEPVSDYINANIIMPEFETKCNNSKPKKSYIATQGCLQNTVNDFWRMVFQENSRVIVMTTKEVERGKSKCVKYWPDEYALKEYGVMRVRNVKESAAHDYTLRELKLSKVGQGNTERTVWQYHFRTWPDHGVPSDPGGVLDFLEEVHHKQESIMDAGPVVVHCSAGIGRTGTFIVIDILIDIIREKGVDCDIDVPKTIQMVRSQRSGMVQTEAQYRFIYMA
The nature of data set [3]: Weight loss in ad lib fed mice (about 50 grams), i.p. every other day. As to conditions: i.p. 10 mg/kg every other day, food ad lib. It counts as in vivo, male Swiss Webster mice. The text has this: Food was provided ad lib.
By 27 days both sets of treated mice had lost about 10% of their starting body weight.

The nature of data set [4]: Weight gain in growing male mice (about 25 grams). The format is in vivo. The settings on record: similar dosing regimen, FIG. 2. The method, then: In a second experiment, growing male mice, about 25 grams, were administered either compound following a similar dosing regimen. As in the previous experiment, both compounds affected weight gain.
The target in data set [5] is T2, PTPN1/PTP1B-CD (Homo sapiens, UniProt P18031).
T2 construct: purchased Recation Biology Inc
T2 sequence (P18031 3-277 limits assumed): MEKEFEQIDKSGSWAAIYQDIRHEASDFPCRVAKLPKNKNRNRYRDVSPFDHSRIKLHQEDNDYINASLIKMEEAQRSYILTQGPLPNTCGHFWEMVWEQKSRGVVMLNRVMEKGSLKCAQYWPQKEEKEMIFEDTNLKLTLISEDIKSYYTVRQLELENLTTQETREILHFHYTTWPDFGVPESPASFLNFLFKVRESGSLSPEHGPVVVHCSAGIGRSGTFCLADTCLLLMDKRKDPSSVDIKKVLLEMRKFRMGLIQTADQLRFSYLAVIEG
In words: Phosphatase panel, DiFMUP fluorescence assay. It counts as biochemical.

Data set [6] is described as follows: Weight loss, i.p. once weekly over 6 weeks (FIG. 1C). The format is in vivo, C57bl/6 male mice. The settings on record: intraperitoneal once weekly over 6 weeks.
A short description of data set [7]: Weight loss, 3, 5, 10 mg/kg (FIG. 14). As to conditions: intraperitoneal 3, 5, 10 mg/kg once weekly over 2 weeks. It counts as in vivo, C57bl/6 male mice.
The nature of data set [8]: Pharmacokinetic profile, intravenous administration. As to conditions: I.V. 5 mg/kg, plasma; for MRT inf: read-out: MRTInf_obs. It counts as in vivo, male SD Rats. On the procedure: The objective of this example was to determine the pharmacokinetic profile of ENT-03 (Compound III) via intravenous and oral administration in male SD Rats.
Animal feeding control: Animals were food fasted overnight prior to dosing and fed 4 hours after administration having free access to water.
PK Sample Analyses: Concentrations of ENT-03 (Compound III) in the plasma and dose samples were analyzed using a LC-MS/MS method. WinNonlin (Phoenix™, version 6.1) or other similar software was used for pharmacokinetic calculations. The following pharmacokinetic parameters were calculated, whenever possible from the plasma concentration versus time data.
IV Bolus administration: T1/2, C0, AUClast, AUCinf, MRTinf, Cl, Vss, Number of Points for Regression.
The pharmacokinetic data was described using descriptive statistics such as mean and standard deviation. All the residual biological samples were retained in the freezer ([…]) for a period of 6 months after testing.

[9] abbreviates: Table 19B, read-out: inhibitory activity PTPN1/PTP1B-CD.
The mark [10] stands for this setting: individual rats (Rat 1-3), listed as ENT-03 (Compound III), 5 mg/kg.
The mark [11] stands for this setting: male, SD, rat, iv, 5 mg/kg, Mean.
The mark [12] stands for this setting: male, SD, rat, iv, 5 mg/kg, individual rats (Rat 1-3).

On to `CC(C)[C@@H](CC[C@@H](C)[C@H]1CC[C@H]2[C@@H]3[C@H](O)C[C@H]4C[C@@H](NCCCNCCCCNCCCN)CC[C@]4(C)[C@H]3CC[C@]12C)OS(=O)(=O)O` (single isomer, unassigned) [ENT-02 (MSI-1436), trodusquemine], for which the “Slope (signal/min)” value is on record as −68 signal/min in data set [1] (Conc 1.00E−04 M); 292 signal/min in data set [1] (Conc 1.11E−05 M); 37260 signal/min in data set [1] (Conc 1.23E−06 M); 40137 signal/min in data set [1] (Conc 1.37E−07 M); 44021 signal/min in data set [1] (Conc 1.52E−08 M); −440 signal/min in data set [1] (Conc 3.33E−05 M). For the same compound, the “Slope (signal/min)” value in data set [1] (Conc 3.70E−06 M) turned out to be 16431 signal/min; in data set [1] (Conc 4.12E−07 M), 39959 signal/min; in data set [1] (Conc 4.57E−08 M), 42717 signal/min; in data set [1] (Conc 5.08E−09 M), 43513 signal/min. The compound further yielded an HILLSLOPE in data set [1] (Table 5A) of −2.19. The compound further showed an IC50 in data set [2] of 375 nM. Moreover, the “effect on weight” value in data set [3] is given as “more severe decline”. For the same compound, in data set [4], the “effect on growth / weight gain” value is “suppressed growth as well as having induced consumption of body fat”.
Turning to `CC(CCC[C@@H](C)[C@H]1CCC2C3C(CC[C@@]21C)[C@@]1(C)CC[C@H](NCCCNCCCCNCCCN)C[C@@H]1C[C@H]3O)C(=O)O` (single isomer, unassigned) [ENT-03], the IC50 in data set [5] (Table 5C, read-out: Compound IC50 (M) PTPN1/PTP1B-CD) was found to be 1.17e-07 M. The IC50 in data set [5] (setting [9]) was 1.17e-07 M. In data set [2], this compound came in with an IC50 of 5000 nM. Moreover, in data set [3], the “effect on weight” value is reported as “weight loss with kinetics similar to that seen following administration of ENT-02”, the “gradual recovery to the starting weight by” value is roughly 45 days, the “nadir of weight decrease” value was roughly 16 days and the “starting body weight lost by 27 days” value was “about 10%”. For the same compound, the “effect on growth / weight gain” value in data set [4] is “continued normal growth”. In data set [6], the “clinical appearance other than weight loss” value is on record as “appeared clinically normal” and the “effect on weight” value is “dose dependent weight loss”. In data set [7], the “clinical appearance other than weight loss” value is on record as “appeared clinically normal” and the “effect on weight” value is on record as “dose dependent weight loss”. In addition, in data set [8] (Mean), the AUC_%Extrap_obs came out at 38.2%, the AUClast/D was 122000 h·ng/mL per mg/kg, the Cl_obs was 5.1 mL/h/kg and the Vss_obs came to 0.125 L/kg. For the same compound, in data set [8] (setting [10]), the AUCInf is 941.13 µg·h/mL and 1095.763 µg·h/mL; the AUC_%Extrap_obs is 39.6% and 35.4% and 39.7%; the AUClast is 608.321 µg·h/mL and 661.154 µg·h/mL; the AUClast/D is 112000 h·ng/mL per mg/kg and 122000 h·ng/mL per mg/kg and 132000 h·ng/mL per mg/kg. In addition, in data set [8] (setting [10]), the C0 is 102.409 µg/mL and 76.2 µg/mL; the Cl_obs is 5.42 mL/h/kg and 5.31 mL/h/kg and 4.57 mL/h/kg; the MRTInf_obs is 22.9 h and 25.5 h; the T1/2 was 17.5 h and 18.6 h. Also, the Vss_obs in data set [8] (setting [10]) is 0.137 L/kg and 0.122 L/kg and 0.116 L/kg. In addition, in data set [8] (setting [11]), the AUC(0-inf) – broadly, total exposure, with the tail of the curve extrapolated – was found to be 986 µg·h/mL; the AUC(0-t) (commonly exposure summed from dosing to a finite time, without extrapolation to infinity) amounted to 609 µg·h/mL; the half-life (in general, how long it takes for the measured level to halve) was 18.2 h; the MRT inf amounted to 24.6 h. The C0 in data set [8] (male, SD, rat, iv, 5 mg/kg, Mean, read-out: C0) turned out to be 86.3 µg/mL. Also, in data set [8] (setting [12]), the AUC(0-inf) is 922 µg·h/mL, the AUC(0-t) came out at 558 µg·h/mL, the half-life is 18.6 h and the MRT inf was found to be 25.3 h. Moreover, the C0 in data set [8] (male, SD, rat, iv, 5 mg/kg, individual rats (Rat 1-3), read-out: C0) came out at 80.4 µg/mL.
Take `CC(CCC[C@@H](C)[C@H]1CCC2C3C(CC(O)[C@@]21C)[C@@]1(C)CC[C@H](NCCCNCCCCN)C[C@@H]1C[C@H]3O)C(=O)O` (single isomer, unassigned) [ENT-05]: the IC50 in data set [5] (Table 18B, read-out: inhibitory activity PTPN1/PTP1B-CD) is 2.58e-06 M.
Regarding `CC(CCC[C@@H](C)[C@H]1CCC2C3C(CC[C@@]21C)[C@@]1(C)CC[C@H](NCCCNCCCCN)C[C@@H]1C[C@H]3O)C(=O)O` (single isomer, unassigned) [ENT-06], the IC50 in data set [5] (setting [9]) came out at 1.47e-07 M.
